Assay [1] deals with Carbonic anhydrase 7 (Homo sapiens) (UniProt P43166). Put plainly: Activation of human recombinant CA7 after 15 mins by stopped-flow CO2 hydration assay.
Assay [2] concerns the target Carbonic anhydrase 5A, mitochondrial (Homo sapiens) (UniProt P35218). Put plainly: Activation of human recombinant CA5A after 15 mins by stopped-flow CO2 hydration assay.
Assay [3] concerns the target Carbonic anhydrase 9 (Homo sapiens) (UniProt Q16790). As to the kind of experiment: Activation of human recombinant CA9 after 15 mins by stopped-flow CO2 hydration assay.
In assay [4] the target is Carbonic anhydrase 12 (Homo sapiens) (UniProt O43570). As to the kind of experiment: Activation of human recombinant CA12 after 15 mins by stopped-flow CO2 hydration assay.
The target in assay [5] is Carbonic anhydrase 14 (Homo sapiens) (UniProt Q9ULX7). Put plainly: Activation of human recombinant CA14 after 15 mins by stopped-flow CO2 hydration assay.
For assay [6], the target named is Carbonic anhydrase 13 (Mus musculus) (UniProt Q9D6N1). Put plainly: Activation of mouse recombinant CA13 after 15 mins by stopped-flow CO2 hydration assay.
The target of assay [7] is Carbonic anhydrase 5B, mitochondrial (Homo sapiens) (UniProt Q9Y2D0). Put plainly: Activation of human recombinant CA5B after 15 mins by stopped-flow CO2 hydration assay.
Assay [8] has as its target Carbonic anhydrase 2 (Homo sapiens) (UniProt P00918). Put plainly: Activation of human recombinant CA2 after […] by stopped-flow CO2 hydration assay.

Chain of Carbonic anhydrase 12 (Homo sapiens) (O43570 whole entry): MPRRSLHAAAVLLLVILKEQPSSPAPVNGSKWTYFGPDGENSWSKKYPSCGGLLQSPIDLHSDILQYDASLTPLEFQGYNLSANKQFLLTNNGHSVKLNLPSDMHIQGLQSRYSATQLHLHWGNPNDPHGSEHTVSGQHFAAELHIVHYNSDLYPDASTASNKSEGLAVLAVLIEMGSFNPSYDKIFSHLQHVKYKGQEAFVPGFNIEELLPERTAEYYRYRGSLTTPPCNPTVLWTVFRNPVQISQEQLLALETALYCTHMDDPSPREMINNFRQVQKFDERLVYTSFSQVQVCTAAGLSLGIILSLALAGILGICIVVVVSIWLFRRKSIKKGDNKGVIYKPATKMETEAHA
Chain of Carbonic anhydrase 5A, mitochondrial (Homo sapiens) (P35218 whole entry): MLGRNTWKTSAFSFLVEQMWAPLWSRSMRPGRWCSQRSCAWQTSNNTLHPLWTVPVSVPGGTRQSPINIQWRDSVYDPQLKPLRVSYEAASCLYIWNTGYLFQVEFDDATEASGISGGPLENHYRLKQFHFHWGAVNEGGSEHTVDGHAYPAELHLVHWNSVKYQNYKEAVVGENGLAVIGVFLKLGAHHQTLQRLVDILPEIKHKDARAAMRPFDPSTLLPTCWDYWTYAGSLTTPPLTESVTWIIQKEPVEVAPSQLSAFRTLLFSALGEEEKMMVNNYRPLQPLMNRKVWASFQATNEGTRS
Chain of Carbonic anhydrase 14 (Homo sapiens) (Q9ULX7 whole entry): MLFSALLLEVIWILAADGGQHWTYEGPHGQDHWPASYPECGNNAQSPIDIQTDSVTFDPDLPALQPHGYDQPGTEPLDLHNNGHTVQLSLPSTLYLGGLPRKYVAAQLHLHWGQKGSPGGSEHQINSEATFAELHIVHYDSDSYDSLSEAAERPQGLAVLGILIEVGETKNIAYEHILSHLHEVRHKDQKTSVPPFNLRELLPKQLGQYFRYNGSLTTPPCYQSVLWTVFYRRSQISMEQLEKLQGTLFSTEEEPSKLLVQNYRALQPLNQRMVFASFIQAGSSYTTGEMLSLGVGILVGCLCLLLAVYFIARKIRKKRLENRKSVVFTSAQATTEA
Chain of Carbonic anhydrase 7 (Homo sapiens) (P43166 whole entry): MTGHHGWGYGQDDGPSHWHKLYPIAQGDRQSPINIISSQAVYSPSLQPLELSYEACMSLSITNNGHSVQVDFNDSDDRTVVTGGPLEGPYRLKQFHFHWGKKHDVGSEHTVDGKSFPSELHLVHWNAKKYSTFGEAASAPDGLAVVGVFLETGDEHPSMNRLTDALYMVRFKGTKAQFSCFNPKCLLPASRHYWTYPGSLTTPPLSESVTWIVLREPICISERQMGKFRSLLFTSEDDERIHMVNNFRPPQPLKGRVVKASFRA
Chain of Carbonic anhydrase 13 (Mus musculus) (Q9D6N1 whole entry, looked up): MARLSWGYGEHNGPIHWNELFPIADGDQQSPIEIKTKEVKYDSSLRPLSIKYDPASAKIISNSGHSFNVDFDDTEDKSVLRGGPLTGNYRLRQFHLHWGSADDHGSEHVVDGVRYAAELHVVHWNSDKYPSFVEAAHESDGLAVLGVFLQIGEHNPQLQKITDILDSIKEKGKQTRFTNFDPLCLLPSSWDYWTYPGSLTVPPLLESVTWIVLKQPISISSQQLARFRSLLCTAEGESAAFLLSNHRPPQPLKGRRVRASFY
Chain of Carbonic anhydrase 5B, mitochondrial (Homo sapiens) (Q9Y2D0 whole entry): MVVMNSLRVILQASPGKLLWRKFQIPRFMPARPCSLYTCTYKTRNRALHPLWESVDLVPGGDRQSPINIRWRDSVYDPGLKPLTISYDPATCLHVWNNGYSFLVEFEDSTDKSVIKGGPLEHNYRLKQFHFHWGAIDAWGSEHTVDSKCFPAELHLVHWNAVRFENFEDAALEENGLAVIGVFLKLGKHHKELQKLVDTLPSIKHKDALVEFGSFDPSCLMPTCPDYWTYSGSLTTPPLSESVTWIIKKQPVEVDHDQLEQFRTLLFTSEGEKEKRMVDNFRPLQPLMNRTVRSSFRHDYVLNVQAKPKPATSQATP

Turning to `CNC[C@@H](O)c1ccc(O)c(O)c1`, the Ka in assay [1] was 60 µM; in assay [2], 63 µM; in assay [3], 0.87 µM; in assay [4] it was 0.41 µM; in assay [5] it was 36 µM.

As to `N[C@@H](Cc1c[nH]c2ccccc12)C(=O)O`, the Ka stood at 57 µM in assay [1]; 1.13 µM in assay [2]; 16 µM in assay [6]; 0.89 µM in assay [7]; 37 µM in assay [3]; 26 µM in assay [4]. In addition, the values for the Ka in assay [5] and in assay [8] were 16 µM and 1.13 µM, respectively.

In the case of `N[C@H](Cc1c[nH]c2ccccc12)C(=O)O`, the Ka in assay [1] stood at 39 µM; in assay [2], 1.24 µM; in assay [6], 0.81 µM; in assay [7], 1.35 µM; in assay [3] it was 43 µM; in assay [4] it was 28 µM. Moreover, the Ka in assay [5] was 18 µM; in assay [8], 0.37 µM.

Values taken from ChEMBL document CHEMBL1144196, “Carbonic anhydrase activators: kinetic and X-ray crystallographic study for the interaction of D- and L-tryptophan with the mammalian isoforms I-XIV” (Bioorg Med Chem, 2008).
